Data set [1] is described as follows: Compound induced cellular toxicity in HepG2 cells (ATPlite 1 Step). The data set is classed as cell-based. The following applies: human, three days, 50% reduction of total ATP levels vs no drug controls. As for the experimental part: At day 3, post seeding cells are treated with ATPlite 1 Step according to the manufacturer's instructions.
In another data set the test system is HBV (2.2.15 cells). The data set can be described thus: Antiviral activity in 2.2.15 cells: reduction of viral product accumulation (qPCR of lysates, HBsAg or HBeAg ELISA). The data set is classed as cell-based, hepatitis B virus (HBV). The following applies: Hepatitis B virus, 120 h, day 5 post treatment, 50% reduction of viral product accumulation in lysates or supernatants vs no drug controls, readout (qPCR, HBsAg, HBeAg) not specified. The gist of the method:
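HBV-producing 2.2.15 cells, 35,000/well, treated with 5-fold serial compound dilutions at 0.5% final DMSO for 5 days. Lysate HBV DNA by qPCR or supernatant HBsAg/HBeAg by ELISA; EC50 is 50% reduction versus no-drug control, binned A<0.1 μM, B 0.1-1 μM, C>1 μM.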

A word on the CC50: it is the concentration giving 50% cytotoxicity. As a reminder, the EC50 is the midpoint of the concentration-response curve. High values mean lower potency in that assay, low ones higher potency in that assay. Molecule `COCCCOc1cc2c(cc1-c1ccc(C)o1)-c1cc(=O)c(C(=O)O)cn1[C@H](C(C)(C)C)C2` [Example 1, (S)-6-(tert-butyl)-9-(3-methoxypropoxy)-10-(5-methylfuran-2-yl)-2-oxo-6,7-dihydro-2H-pyrido[2,1-a]isoquinoline-3-carboxylic Acid] gave a CC50 at 3 days in data set [1] of more than 25000 nM. Besides, in the data set with HBV (2.2.15 cells), the EC50 is less than 100 nM.
Taken in the same sequence, the figures for `COCCCOc1cc2c(cc1-c1ccoc1)-c1cc(=O)c(C(=O)O)cn1[C@H](C(C)(C)C)C2` [Example 2, (S)-6-(tert-butyl)-10-(furan-3-yl)-9-(3-methoxypropoxy)-2-oxo-6,7-dihydro-2H-pyrido[2,1-a]isoquinoline-3-carboxylic Acid] were more than 25000 nM and less than 100 nM.
With `COCCCOc1cc2c(cc1-c1ccccc1)-c1cc(=O)c(C(=O)O)cn1[C@H](C(C)(C)C)C2` [Example 3, (S)-6-(tert-butyl)-9-(3-methoxypropoxy)-2-oxo-10-phenyl-6,7-dihydro-2H-pyrido[2,1-a]isoquinoline-3-carboxylic Acid], the cytotoxic concentration (CC50) at 3 days in data set [1] is less than 10000 nM. The molecule further showed a 50% effective concentration (EC50) in the data set with HBV (2.2.15 cells) of less than 100 nM.
Taken in the same sequence, the figures for `COCCCOc1cc2c(cc1-c1cnn(C)c1)-c1cc(=O)c(C(=O)O)cn1[C@H](C(C)(C)C)C2` [Example 4, (S)-6-(tert-butyl)-9-(3-methoxypropoxy)-10-(1-methyl-1H-pyrazol-4-yl)-2-oxo-6,7-dihydro-2H-pyrido[2,1-a]isoquinoline-3-carboxylic Acid] were more than 25000 nM and less than 100 nM.
The molecule `COCCCOc1cc2c(cc1-c1ccsc1)-c1cc(=O)c(C(=O)O)cn1[C@H](C(C)(C)C)C2` [Example 5, (S)-6-(tert-butyl)-9-(3-methoxypropoxy)-2-oxo-10-(thiophen-3-yl)-6,7-dihydro-2H-pyrido[2,1-a]isoquinoline-3-carboxylic Acid] had a CC50 at 3 days in data set [1] of more than 25000 nM. In the data set with HBV (2.2.15 cells), this molecule gave a concentration for a half-maximal effect (EC50) of less than 100 nM.
Taken in the same sequence, the figures for `COCCCOc1cc2c(cc1-c1cnco1)-c1cc(=O)c(C(=O)O)cn1[C@H](C(C)(C)C)C2` [Example 6, (S)-6-(tert-butyl)-9-(3-methoxypropoxy)-10-(oxazol-5-yl)-2-oxo-6,7-dihydro-2H-pyrido[2,1-a]isoquinoline-3-carboxylic Acid] were more than 25000 nM and less than 100 nM.
For `COCCCOc1cc2c(cc1-c1ccco1)-c1cc(=O)c(C(=O)O)cn1[C@H](C(C)(C)C)C2` [Example 7, (S)-6-(tert-butyl)-10-(furan-2-yl)-9-(3-methoxypropoxy)-2-oxo-6,7-dihydro-2H-pyrido[2,1-a]isoquinoline-3-carboxylic Acid], the CC50 at 3 days in data set [1] is more than 25000 nM. The molecule further came in with a concentration giving a half-maximal response (EC50) with HBV (2.2.15 cells) of less than 100 nM.
For the molecule `COCCCOc1cc2c(cc1-c1cccs1)-c1cc(=O)c(C(=O)O)cn1[C@H](C(C)(C)C)C2` [Example 8, (S)-6-(tert-butyl)-9-(3-methoxypropoxy)-2-oxo-10-(thiophen-2-yl)-6,7-dihydro-2H-pyrido[2,1-a]isoquinoline-3-carboxylic Acid], the 50% cytotoxic concentration (CC50) at 3 days in data set [1] lay within 10000 to 25000 nM. Also, the EC50 in the data set with HBV (2.2.15 cells) was less than 100 nM.
As to `COCCCOc1cc2c(cc1-c1cc3ccccc3o1)-c1cc(=O)c(C(=O)O)cn1[C@H](C(C)(C)C)C2` [Example 9, (S)-10-(benzofuran-2-yl)-6-(tert-butyl)-9-(3-methoxypropoxy)-2-oxo-6,7-dihydro-2H-pyrido[2,1-a]isoquinoline-3-carboxylic Acid], the CC50 at 3 days in data set [1] was more than 25000 nM. This molecule also displayed an EC50 in the data set on HBV (2.2.15 cells) of less than 100 nM.
Take `COCCCOc1cc2c(cc1-c1coc3ccccc13)-c1cc(=O)c(C(=O)O)cn1[C@H](C(C)(C)C)C2` [Example 10, (S)-10-(benzofuran-3-yl)-6-(tert-butyl)-9-(3-methoxypropoxy)-2-oxo-6,7-dihydro-2H-pyrido[2,1-a]isoquinoline-3-carboxylic Acid]: the CC50 at 3 days in data set [1] was more than 25000 nM. For the same molecule, the EC50 in the data set on HBV (2.2.15 cells) was less than 100 nM.
`COCCCOc1cc2c(cc1-c1cc[nH]c1)-c1cc(=O)c(C(=O)O)cn1[C@H](C(C)(C)C)C2` [Example 11, (S)-6-(tert-butyl)-9-(3-methoxypropoxy)-2-oxo-10-(1H-pyrrol-3-yl)-6,7-dihydro-2H-pyrido[2,1-a]isoquinoline-3-carboxylic Acid] had a 50% cytotoxic concentration (CC50) at 3 days in data set [1] of more than 25000 nM. In the data set with HBV (2.2.15 cells), this molecule gave an EC50 of less than 100 nM.
Molecule `COCCCOc1cc2c(cc1-c1cnc3ccccc3c1)-c1cc(=O)c(C(=O)O)cn1[C@H](C(C)(C)C)C2` [Example 12, (S)-6-(tert-butyl)-9-(3-methoxypropoxy)-2-oxo-10-(quinolin-3-yl)-6,7-dihydro-2H-pyrido[2,1-a]isoquinoline-3-carboxylic Acid] returned a CC50 at 3 days in data set [1] of more than 25000 nM. In the data set on HBV (2.2.15 cells), this molecule came in with a 50% effective concentration (EC50) of less than 100 nM.
With `COCCCOc1cc2c(cc1-c1ccccc1F)-c1cc(=O)c(C(=O)O)cn1[C@H](C(C)(C)C)C2` [Example 13, (S)-6-(tert-butyl)-10-(2-fluorophenyl)-9-(3-methoxypropoxy)-2-oxo-6,7-dihydro-2H-pyrido[2,1-a]isoquinoline-3-carboxylic Acid], the 50% cytotoxic concentration (CC50) at 3 days in data set [1] lay within 10000 to 25000 nM. In the data set with HBV (2.2.15 cells), the EC50 was less than 100 nM.
Take `COCCCOc1cc2c(cc1-c1cccc(F)c1)-c1cc(=O)c(C(=O)O)cn1[C@H](C(C)(C)C)C2` [Example 14, (S)-6-(tert-butyl)-10-(3-fluorophenyl)-9-(3-methoxypropoxy)-2-oxo-6,7-dihydro-2H-pyrido[2,1-a]isoquinoline-3-carboxylic Acid]: the half-maximal cytotoxic concentration (CC50) at 3 days in data set [1] was 10000 to 25000 nM. Moreover, the half-maximal effective concentration (EC50) with HBV (2.2.15 cells) is less than 100 nM.
Taken in the same sequence, the figures for `COCCCOc1cc2c(cc1-c1ccc(F)cc1)-c1cc(=O)c(C(=O)O)cn1[C@H](C(C)(C)C)C2` [Example 15, (S)-6-(tert-butyl)-10-(4-fluorophenyl)-9-(3-methoxypropoxy)-2-oxo-6,7-dihydro-2H-pyrido[2,1-a]isoquinoline-3-carboxylic Acid] were 10000 to 25000 nM and less than 100 nM.
As for `COCCCOc1cc2c(cc1-c1cccc(OC)c1)-c1cc(=O)c(C(=O)O)cn1[C@H](C(C)(C)C)C2` [Example 16, (S)-6-(tert-butyl)-10-(3-methoxyphenyl)-9-(3-methoxypropoxy)-2-oxo-6,7-dihydro-2H-pyrido[2,1-a]isoquinoline-3-carboxylic Acid], the cytotoxic concentration (CC50) at 3 days in data set [1] fell in the range of 10000 to 25000 nM. Also, the EC50 in the data set on HBV (2.2.15 cells) is less than 100 nM.
The molecule `COCCCOc1cc2c(cc1-c1ccc(OC)cc1)-c1cc(=O)c(C(=O)O)cn1[C@H](C(C)(C)C)C2` [Example 17, (S)-6-(tert-butyl)-10-(4-methoxyphenyl)-9-(3-methoxypropoxy)-2-oxo-6,7-dihydro-2H-pyrido[2,1-a]isoquinoline-3-carboxylic Acid] came in with a 50% cytotoxic concentration (CC50) at 3 days in data set [1] of 10000 to 25000 nM. Further, the concentration for a half-maximal effect (EC50) in the data set with HBV (2.2.15 cells) is less than 100 nM.
Regarding `COCCCOc1cc2c(cc1-c1ccnn1C)-c1cc(=O)c(C(=O)O)cn1[C@H](C(C)(C)C)C2` [Example 18, (S)-6-(tert-butyl)-9-(3-methoxypropoxy)-10-(1-methyl-1H-pyrazol-5-yl)-2-oxo-6,7-dihydro-2H-pyrido[2,1-a]isoquinoline-3-carboxylic Acid], the CC50 at 3 days in data set [1] is more than 25000 nM. This molecule came in with an EC50 in the data set with HBV (2.2.15 cells) of less than 100 nM.
`CC1(C)Cc2c3c(cc(-c4ccsc4)c2O1)-c1cc(=O)c(C(=O)O)cn1[C@H](C(C)(C)C)C3` [Example 149, (S)-5-(tert-butyl)-2,2-dimethyl-9-oxo-12-(thiophen-3-yl)-2,3,4,9-tetrahydro-5H-furo[3,2-f]pyrido[2,1-a]isoquinoline-8-carboxylic Acid]: in the data set on HBV (2.2.15 cells), the EC50 was more than 1000 nM.
`Cn1nccc1-c1cc2c(c3c1OC(C)(C)C3)C[C@@H](C(C)(C)C)n1cc(C(=O)O)c(=O)cc1-2` [Example 150, (S)-5-(tert-butyl)-2,2-dimethyl-12-(1-methyl-1H-pyrazol-5-yl)-9-oxo-2,3,4,9-tetrahydro-5H-furo[3,2-f]pyrido[2,1-a]isoquinoline-8-carboxylic Acid]: in the data set with HBV (2.2.15 cells), the EC50 is more than 1000 nM.
In the data set with HBV (2.2.15 cells), `Cn1cc(-c2cc3c(c4c2OC(C)(C)C4)C[C@@H](C(C)(C)C)n2cc(C(=O)O)c(=O)cc2-3)cn1` [Example 151, (S)-5-(tert-butyl)-2,2-dimethyl-12-(1-methyl-1H-pyrazol-4-yl)-9-oxo-2,3,4,9-tetrahydro-5H-furo[3,2-f]pyrido[2,1-a]isoquinoline-8-carboxylic Acid] registered an EC50 of more than 1000 nM.
With `CC1(C)Cc2c3c(cc(-c4cccs4)c2O1)-c1cc(=O)c(C(=O)O)cn1[C@H](C(C)(C)C)C3` [Example 152, (S)-5-(tert-butyl)-2,2-dimethyl-9-oxo-12-(thiophen-2-yl)-2,3,4,9-tetrahydro-5H-furo[3,2-f]pyrido[2,1-a]isoquinoline-8-carboxylic Acid], the EC50 in the data set with HBV (2.2.15 cells) is more than 1000 nM.
Regarding `COCCCCc1cc2c(cc1N1CC(F)(F)C1)-c1cc(=O)c(C(=O)O)cn1[C@H](C(C)(C)C)C2` [Example 153, (S)-6-(tert-butyl)-10-(3,3-difluoroazetidin-1-yl)-9-(4-methoxybutyl)-2-oxo-6,7-dihydro-2H-pyrido[2,1-a]isoquinoline-3-carboxylic Acid], in the data set with HBV (2.2.15 cells), the EC50 is less than 100 nM.
As for `CC(C)(C)[C@@H]1Cc2ccc(N3CC(F)(F)C3)cc2-c2cc(=O)c(C(=O)O)cn21` [Example 154, (S)-6-(tert-butyl)-10-(3,3-difluoroazetidin-1-yl)-2-oxo-6,7-dihydro-2H-pyrido[2,1-a]isoquinoline-3-carboxylic Acid], in the data set on HBV (2.2.15 cells), the 50% effective concentration (EC50) was more than 1000 nM.
`CC(C)(C)[C@@H]1Cc2c(cc(N3CC(F)(F)C3)c3c2C[C@H](C(F)F)O3)-c2cc(=O)c(C(=O)O)cn21` [Example 155, (2R,5S)-5-(tert-butyl)-12-(3,3-difluoroazetidin-1-yl)-2-(difluoromethyl)-9-oxo-2,3,4,9-tetrahydro-5H-furo[3,2-f]pyrido[2,1-a]isoquinoline-8-carboxylic Acid] registered an EC50 in the data set with HBV (2.2.15 cells) of more than 1000 nM.

Source of the values: patent US11058678B2 (Enanta Pharmaceuticals, Inc., priority 2018, dated 2021).
